Where a name gives a salt, the structure may show the parent alone.
biological target: IRAK4 (Homo sapiens (Human), UniProt Q9NWZ3); assay: IRAK4 Kinase Assay (IMAP fluorescence polarization); format: biochemical; conditions: 0.5 nM GST tagged IRAK4, 100 μM ATP, 30 minutes at 25° C., IMAP FP
Protocol: The kinase activity of IRAK4 is determined by its ability to catalyze the phosphorylation of a fluorescent polypeptide substrate. The extent of phosphorylation is measured using the IMAP technology (Molecular Devices) where the phosphorylated fluorescent substrate binds to the large M (III)-based nanoparticles which reduces the rotational speed of the substrate and thus increases its fluorescent polarization (FP).
20 μL reaction mixture contains 10 mM TriHCl, pH 7.2, 0.5 nM GST tagged IRAK4 (SignalChem), 100 nM fluorescent peptide substrate (RP7030, Molecular Devices), 100 μM ATP, 1 mM DDT, 1 mM MgCl2, and 0.01% Tween 20. The reaction is initiated by the addition of ATP. After incubation for 30 minutes at 25° C., 60 μL of Progressive IMAP Reagent (Molecular Devices) is added to stop the reaction. Change in RP7030's FP is determined by a FP reader (Analyst HT, LJL BioSystems).

IRAK4, sequence (Q9NWZ3 whole entry): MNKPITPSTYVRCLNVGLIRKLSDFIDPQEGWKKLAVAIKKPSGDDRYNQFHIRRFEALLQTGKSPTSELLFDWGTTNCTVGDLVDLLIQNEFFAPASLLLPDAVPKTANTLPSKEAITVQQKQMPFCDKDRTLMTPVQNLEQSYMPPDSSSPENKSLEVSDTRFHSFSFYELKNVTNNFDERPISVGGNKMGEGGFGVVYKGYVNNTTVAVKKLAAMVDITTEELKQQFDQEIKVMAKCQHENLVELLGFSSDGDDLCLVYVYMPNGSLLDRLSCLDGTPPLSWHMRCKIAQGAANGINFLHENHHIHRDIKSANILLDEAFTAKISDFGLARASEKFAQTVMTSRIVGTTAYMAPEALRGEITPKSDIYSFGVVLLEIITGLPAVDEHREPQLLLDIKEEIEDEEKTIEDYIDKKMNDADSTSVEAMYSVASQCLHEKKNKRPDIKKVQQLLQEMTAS

Row | Compound | IC50 [nM]
1 | Cn1cc(NC(=O)c2ccc3ccc(N[C@@H]4CCCNC4)nn23)c(C(F)F)n1 [Example 16, N-[3-(difluoromethyl)-1-methyl-1H-pyrazol-4-yl]-2-[(3R)-piperidin-3-ylamino]pyrrolo[1,2-b]pyridazine-7-carboxamide trifluoroacetate] | 0.9
2 | Cn1cc(NC(=O)c2ccc3ccc(N[C@H]4CCCCNC4)nn23)c(C(F)(F)F)n1 (single isomer, unassigned) [Example 40, 2-[(3R)- or (3S)-azepan-3-ylamino]-N-[1-methyl-3-(trifluoromethyl)-1H-pyrazol-4-yl]pyrrolo[1,2-b]pyridazine-7-carboxamide trifluoroacetate] | 2
3 | Cn1cc(NC(=O)c2ccc3ccc(N4CC5CCC4CN5)nn23)c(C#N)n1 (stereo not shown) [Example 31, N-(3-cyano-1-methyl-1H-pyrazol-4-yl)-2-(2,5-diazabicyclo[2.2.2]oct-2-yl)pyrrolo[1,2-b]pyridazine-7-carboxamide trifluoroacetate] | 25
4 | Cn1cc(NC(=O)c2ccc3ccc(N[C@@H]4CCCCNC4)nn23)c(C(F)(F)F)n1 (single isomer, unassigned) [Example 39, 2-[(3R)- or (3S)-azepan-3-ylamino]-N-[1-methyl-3-(trifluoromethyl)-1H-pyrazol-4-yl]pyrrolo[1,2-b]pyridazine-7-carboxamide trifluoroacetate] | 2
5 | Cn1cc(NC(=O)c2ccc3ccc(N[C@@H]4CCCC[C@@H]4N)nn23)c(C(F)(F)F)n1 [Example 1, 2-(((1R,2S)-2-Aminocyclohexyl)amino)-N-(1-methyl-3-(trifluoromethyl)-1H-pyrazol-4-yl)pyrrolo[1,2-b]pyridazine-7-carboxamide] | 5
6 | Cn1cc(NC(=O)c2ccc3ccc(N4C[C@@H]5CN[C@@H](C5)C4)nn23)c(C(F)F)n1 (single isomer, unassigned) [Example 51, 2-[(1S,5S)- or (1R,5R)-3,6-diazabicyclo[3.2.1]oct-3-yl]-N-[3-(difluoromethyl)-1-methyl-1H-pyrazol-4-yl]pyrrolo[1,2-b]pyridazine-7-carboxamide] | 12
7 | Cn1cc(NC(=O)c2ccc3ccc(N4C[C@@H]5CC[C@H]4CN5)nn23)c(C(F)F)n1 (single isomer, unassigned) [Example 37, 2-[(1S,4S)- or (1R,4R)-2,5-diazabicyclo[2.2.2]oct-2-yl]-N-[3-(difluoromethyl)-1-methyl-1H-pyrazol-4-yl]pyrrolo[1,2-b]pyridazine-7-carboxamide trifluoroacetate] | 3
8 | Cn1cc(NC(=O)c2ccc3ccc(N[C@@H]4CCCC[C@@H]4O)nn23)c(C(F)F)n1 [Example 20, N-[3-(difluoromethyl)-1-methyl-1H-pyrazol-4-yl]-2-{[(1R,2S)-2-hydroxycyclohexyl]amino}pyrrolo[1,2-b]pyridazine-7-carboxamide trifluoroacetate] | 11
9 | Cn1cc(NC(=O)c2ccc3ccc(N4CC5CCC4CN5)nn23)c(C(F)(F)F)n1 (stereo not shown) [Example 11, 2-(2,5-diazabicyclo[2.2.2]oct-2-yl)-N-[1-methyl-3-(trifluoromethyl)-1H-pyrazol-4-yl]pyrrolo[1,2-b]pyridazine-7-carboxamide] | 27
10 | Cn1cc(NC(=O)c2ccc3ccc(N4CC5CCC(C4)N5)nn23)c(C(F)F)n1 [Example 46, 2-(3,8-diazabicyclo[3.2.1]oct-3-yl)-N-[3-(difluoromethyl)-1-methyl-1H-pyrazol-4-yl]pyrrolo[1,2-b]pyridazine-7-carboxamide trifluoroacetate] | 1
11 | Cn1cc(NC(=O)c2ccc3ccc(N4C[C@H]5CC[C@@H]4CN5)nn23)c(C#N)n1 (single isomer, unassigned) [Example 44, N-(3-cyano-1-methyl-1H-pyrazol-4-yl)-2-[(1S,4S)- or (1R,4R)-2,5-diazabicyclo[2.2.2]oct-2-yl]pyrrolo[1,2-b]pyridazine-7-carboxamide trifluoroacetate] | 50
12 | Cn1cc(NC(=O)c2ccc3ccc(N4C[C@@H]5CN[C@@H](C5)C4)nn23)c(C(F)(F)F)n1 (single isomer, unassigned) [Example 3, 2-[(1S,5S)- or (1R,5R)-3,6-diazabicyclo[3.2.1]oct-3-yl]-N-[1-methyl-3-(trifluoromethyl)-1H-pyrazol-4-yl]pyrrolo[1,2-b]pyridazine-7-carboxamide] | 85
13 | Cn1cc(NC(=O)c2ccc3ccc(N4CCCNCC4)nn23)c(C(F)(F)F)n1 [Example 10, 2-(1,4-diazepan-1-yl)-N-[1-methyl-3-(trifluoromethyl)-1H-pyrazol-4-yl]pyrrolo[1,2-b]pyridazine-7-carboxamide trifluoroacetate] | 33

The remaining lines, values ahead:

Row | IC50 [nM] | Compound
14 | 24 | N[C@H]1CCCC[C@H]1Nc1ccc2ccc(C(=O)Nc3cscc3C(F)F)n2n1 [Example 72, 2-{[(1R,2S)-2-aminocyclohexyl]amino}-N-[4-(difluoromethyl)thiophen-3-yl]pyrrolo[1,2-b]pyridazine-7-carboxamide trifluoroacetate]
15 | 6 | N[C@H]1CCCC[C@H]1Nc1ccc2ccc(C(=O)Nc3ccccc3Cl)n2n1 [Example 65, 2-{[(1R,2S)-2-aminocyclohexyl]amino}-N-(2-chlorophenyl)pyrrolo[1,2-b]pyridazine-7-carboxamide trifluoroacetate]
16 | 526 | N#Cc1sccc1NC(=O)c1ccc2ccc(N[C@@H]3CCCC(F)(F)[C@@H]3N)nn12 [Example 98, 2-{[(1R,2R)-2-amino-3,3-difluorocyclohexyl]amino}-N-(2-cyanothiophen-3-yl)pyrrolo[1,2-b]pyridazine-7-carboxamide trifluoroacetate]
17 | 766 | N#Cc1ccccc1NC(=O)c1ccc2ccc(N3CCNCC4(CC4)C3)nn12 [Example 103, N-(2-cyanophenyl)-2-(5,8-diazaspiro[2.6]non-5-yl)pyrrolo[1,2-b]pyridazine-7-carboxamide trifluoroacetate]
18 | 1370 | N#Cc1sccc1NC(=O)c1ccc2ccc(N[C@@H]3CCCC[C@@H]3O)nn12 [Example 97, N-(2-cyanothiophen-3-yl)-2-{[(1R,2S)-2-hydroxycyclohexyl]amino}pyrrolo[1,2-b]pyridazine-7-carboxamide trifluoroacetate]
19 | 1860 | N#Cc1ccccc1NC(=O)c1ccc2ccc(N[C@@H]3CCCC[C@@H]3O)nn12 [Example 104, N-(2-cyanophenyl)-2-{[(1R,2S)-2-hydroxycyclohexyl]amino}pyrrolo[1,2-b]pyridazine-7-carboxamide trifluoroacetate]
20 | 192 | O=C(Nc1ccsc1Br)c1ccc2ccc(N3C[C@H]4CC[C@@H]3CN4)nn12 (single isomer, unassigned) [Example 79, N-(2-bromothiophen-3-yl)-2-[(1S,4S)- or (1R,4R)-2,5-diazabicyclo[2.2.2]oct-2-yl]pyrrolo[1,2-b]pyridazine-7-carboxamide trifluoroacetate]
21 | 5630 | N[C@@H]1[C@H](Nc2ccc3ccc(C(=O)Nc4ccccc4Br)n3n2)CCCC1(F)F [Example 94, 2-{[(1R,2R)-2-amino-3,3-difluoro-cyclohexyl]amino}-N-(2-bromophenyl)pyrrolo[1,2-b]pyridazine-7-carboxamide trifluoroacetate]
22 | 6160 | N[C@@H]1[C@H](Nc2ccc3ccc(C(=O)Nc4cscc4Br)n3n2)CCCC1(F)F [Example 88, 2-{[(1R,2R)-2-amino-3,3-difluoro-cyclohexyl]amino}-N-(4-bromothiophen-3-yl)pyrrolo[1,2-b]pyridazine-7-carboxamide trifluoroacetate]
23 | 2 | N[C@H]1CCCC[C@H]1Nc1ccc2ccc(C(=O)Nc3cscc3Cl)n2n1 [Example 85, 2-{[(1R,2S)-2-aminocyclohexyl]amino}-N-(4-chlorothiophen-3-yl)pyrrolo[1,2-b]pyridazine-7-carboxamide trifluoroacetate]
24 | 5240 | N[C@@H]1[C@H](Nc2ccc3ccc(C(=O)Nc4ccsc4Br)n3n2)CCCC1(F)F [Example 86, 2-{[(1R,2R)-2-amino-3,3-difluoro-cyclohexyl]amino}-N-(2-bromothiophen-3-yl)pyrrolo[1,2-b]pyridazine-7-carboxamide trifluoroacetate]
25 | 461 | N#Cc1ccccc1NC(=O)c1ccc2ccc(N3CC4CCC3CN4)nn12 (stereo not shown) [Example 102, N-(2-cyanophenyl)-2-(2,5-diazabicyclo[2.2.2]oct-2-yl)pyrrolo[1,2-b]pyridazine-7-carboxamide trifluoroacetate]
26 | 433 | O=C(Nc1ccsc1Cl)c1ccc2ccc(N3CC4CCC3CN4)nn12 (stereo not shown) [Example 70, N-(2-chlorothiophen-3-yl)-2-(2,5-diazabicyclo[2.2.2]oct-2-yl)pyrrolo[1,2-b]pyridazine-7-carboxamide trifluoroacetate]
27 | 1220 | O=C(Nc1ccsc1C(F)(F)F)c1ccc2ccc(N3C[C@@H]4CC[C@H]3CN4)nn12 (single isomer, unassigned) [Example 113, 2-[(1S,4S)- or (1R,4R)-2,5-diazabicyclo[2.2.2]oct-2-yl]-N-[2-(trifluoromethyl)thiophen-3-yl]pyrrolo[1,2-b]pyridazine-7-carboxamide trifluoroacetate]
28 | 574 | N#Cc1ccccc1NC(=O)c1ccc2ccc(N3CCNCC3)nn12 [Example 101, N-(2-cyanophenyl)-2-piperazin-1-ylpyrrolo[1,2-b]pyridazine-7-carboxamide trifluoroacetate]

Source: US10040798B2, “Pyrrolopyridazine inhibitors of IRAK4 activity” (MERCK SHARP & DOHME CORP., priority 2015, dated 2018)
